Test results: patent publication US20230114728A1 (Venatorx Pharmaceuticals, Inc., priority 2019, published 2023)

Molecular target: A. baumannii PBP1a (Acinetobacter baumannii, UniProt A0ABX6CK30)
Experiment: Bocillin-FL fluorescence polarization competition binding assay, A. baumannii PBP1a
Conditions: fluorescence polarization competition binding assay using Bocillin-FL; column 1; read-out: A. baumannii PBP1a Potency
Description: Example I: Experimental Method for Penicillin-Binding Protein Binding Assays with Bocillin-FL Via Fluorescence Polarization
To determine the ability of boronic acid-based test PBP inhibitors to bind Penicillin Binding Proteins (PBPs), Bocillin-FL (fluorescently-labeled penicillin V; ThermoFisher Scientific) was used in a fluorescence polarization (FP) competition binding assay to assess inhibitor binding to PBP2, PBP3 or PBP4 from Escherichia coli (K12), PBP3 from Pseudomonas aeruginosa (PA01), PBP1a, PBP2 and PBP3 from Acinetobacter baumannii (ATCC 19606), and PBP2 from Neiserria gonorrheae (FA19). PBPs were cloned and purified as described previously (E. coli PBPs, King, D. T, et al., ACS Infectious Diseases 2015, 1, 175-184; P. aeruginosa PBP3, Han et. al., PNAS 2010, 107 (51), 22002-22007; A. baumannii PBPs, Penwell et. al., Antimicrob. Agents Chemother. 2015, 59 (3), 1680-1689; N. gonorrhoeae PBP2, Singh et. al., J Biol. Chem. 2019, 294 (38), 14020-14032). To establish assay conditions for competition binding, enzyme titration/saturation binding experiments were initially performed. Bocillin-FL was prepared at 0.2 μM in a buffer comprised of 50 mM Hepes (pH 8.0), 300 mM NaCl and 5% (v/v) glycerol for reactions with E. coli, P. aeruginosa and N. gonorrhoeae PBPs, and 25 mM Tris (pH 8.0), 200 mM NaCl and 10% (v/v) glycerol and 0.005% (v/v) Tween 20 for reactions with A. baumannii PBPs. Saturation binding was performed by mixing 40 μl of PBP solutions ranging in concentrations from 0-24 μM with 40 μl of the 0.2 μM Bocillin-FL solution, in individual wells of a black 384-well microplate. FP was measured immediately upon mixing (Excitation, 490 nm; Emission, 520 nm; g-factor, 0.96), using a Cytation3 (BioTek) microplate reader and measured continuously for up to 120 minutes. […] The competition binding assay (80 μl final volume) was validated using beta-lactams and PBPs at final concentrations of: 1.5 μM, E. coli PBP3; 0.75 μM, P. aeruginosa PBP3; 1 μM A. baumannii PBP1a; 2.5 μM A. baumannii PBP2; 0.2 μM A. baumannii PBP3; and […] N. gonorrhoeae PBP2. Bocillin-FL was at 0.1 μM (0.05 μM with A. baumannii PBP1a) and beta-lactam concentrations ranged from 0-1000 μM. […] Bocillin-FL was added and the FP immediately measured for up to 60 minutes (90 minutes for E. coli PBP2). […] The beta-lactam potency was reported as the concentration of beta-lactam required to reduce the amount of PBP bound-Bocillin-FL by 50% (EC50). […] Binding assays for boronic acid PBP inhibitors were performed in an identical fashion for the respective PBPs

Chain of A. baumannii PBP1a (A0ABX6CK30 entry or part of it): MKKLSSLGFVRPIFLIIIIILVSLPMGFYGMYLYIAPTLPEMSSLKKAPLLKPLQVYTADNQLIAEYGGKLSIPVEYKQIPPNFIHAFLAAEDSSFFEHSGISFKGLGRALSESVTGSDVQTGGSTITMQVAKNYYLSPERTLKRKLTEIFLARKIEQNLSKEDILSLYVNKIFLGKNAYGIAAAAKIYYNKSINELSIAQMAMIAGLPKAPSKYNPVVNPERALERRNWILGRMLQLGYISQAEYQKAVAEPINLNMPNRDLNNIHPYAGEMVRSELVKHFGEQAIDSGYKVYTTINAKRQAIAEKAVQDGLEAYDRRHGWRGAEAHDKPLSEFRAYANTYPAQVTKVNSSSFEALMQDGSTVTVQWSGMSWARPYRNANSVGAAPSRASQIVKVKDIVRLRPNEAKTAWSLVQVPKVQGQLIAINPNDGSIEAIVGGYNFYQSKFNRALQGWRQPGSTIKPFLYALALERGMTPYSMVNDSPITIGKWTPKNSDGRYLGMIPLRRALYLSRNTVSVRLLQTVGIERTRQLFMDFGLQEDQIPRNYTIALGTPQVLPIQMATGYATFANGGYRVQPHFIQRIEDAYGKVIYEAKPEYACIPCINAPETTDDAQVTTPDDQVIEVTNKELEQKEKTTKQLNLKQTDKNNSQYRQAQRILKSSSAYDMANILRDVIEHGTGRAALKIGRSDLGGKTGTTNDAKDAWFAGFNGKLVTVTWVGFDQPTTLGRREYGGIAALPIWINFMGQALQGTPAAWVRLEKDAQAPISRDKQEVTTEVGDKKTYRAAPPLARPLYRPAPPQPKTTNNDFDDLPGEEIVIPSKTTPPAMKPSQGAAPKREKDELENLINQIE

SMILES | EC50
NC1(CN2CCN(C(=O)N[C@@H](C(=O)N[C@H]3Cc4ccc(F)c(C(=O)O)c4OB3O)c3c(F)cc(O)c(O)c3Cl)C(=O)C2=O)CC1 (single isomer, unassigned) [Example 134] | > 100 µM
NCCN1CCN(C(=O)N[C@@H](C(=O)N[C@H]2Cc3ccc(F)c(C(=O)O)c3OB2O)c2cc(F)c(O)c(O)c2Cl)C(=O)C1=O (single isomer, unassigned) [Example 179] | > 100 µM
NCCCN1CCN(C(=O)N[C@@H](C(=O)N[C@H]2Cc3ccc(F)c(C(=O)O)c3OB2O)c2cc(F)c(O)c(O)c2Cl)C(=O)C1=O (single isomer, unassigned) [Example 180] | > 100 µM
C[C@@H](O)[C@@H](NC(=O)N1CCN(CCNC(=O)c2c(F)cc(O)c(O)c2Cl)C(=O)C1=O)C(=O)N[C@H]1Cc2ccc(F)c(C(=O)O)c2OB1O [Example 102, (R)-3-((2R,3R)-2-(4-(2-(2-chloro-6-fluoro-3,4-dihydroxybenzamido)ethyl)-2,3-dioxopiperazine-1-carboxamido)-3-hydroxybutanamido)-7-fluoro-2-hydroxy-3,4-dihydro-2H-benzo[e][1,2]oxaborinine-8-carboxylic acid] | > 100 µM
NS(=O)(=O)Nc1cccc(C(NC(=O)N2CCN(Cc3c(F)cc(O)c(O)c3Cl)C(=O)C2=O)C(=O)N[C@H]2Cc3cccc(C(=O)O)c3OB2O)c1 (stereo partly drawn) [Example 131, (3R)-3-(2-(4-(2-chloro-6-fluoro-3,4-dihydroxybenzyl)-2,3-dioxopiperazine-1-carboxamido)-2-(3-(sulfamoylamino)phenyl)acetamido)-2-hydroxy-3,4-dihydro-2H-benzo[e][1,2]oxaborinine-8-carboxylic acid] | 30 to 100 µM
NS(=O)(=O)c1cc(O)cc(C(NC(=O)N2CCN(Cc3c(F)cc(O)c(O)c3Cl)C(=O)C2=O)C(=O)N[C@H]2Cc3cccc(C(=O)O)c3OB2O)c1 (stereo partly drawn) [Example 132, (3R)-3-(2-(4-(2-chloro-6-fluoro-3,4-dihydroxybenzyl)-2,3-dioxopiperazine-1-carboxamido)-2-(3-hydroxy-5-sulfamoylphenyl)acetamido)-2-hydroxy-3,4-dihydro-2H-benzo[e][1,2]oxaborinine-8-carboxylic acid] | 30 to 100 µM
CCN1CCN(C(=O)NC(C(=O)N[C@H]2Cc3cccc(C(=O)O)c3OB2O)c2c(F)cc(N)cc2F)C(=O)C1=O (stereo partly drawn) [Example 181, (3R)-3-(2-(4-amino-2,6-difluorophenyl)-2-(4-ethyl-2,3-dioxopiperazine-1-carboxamido)acetamido)-2-hydroxy-3,4-dihydro-2H-benzo[e][1,2]oxaborinine-8-carboxylic acid] | > 100 µM
